Calls of active or inactive are those of the source.
Legend:
Paired box protein Pax-8 = Paired box protein Pax-8 (Homo sapiens, UniProt Q06710); assay: PAX8 transcriptional activity inhibition in RMG-I – RMG-I cells, luciferase, cherry-pick, dose response (AID 687027); type: functional, cell-based;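 note: luciferase reporter driven by Pax8 target thyroperoxidase promoter measured by SteadyGlo luminescence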
[1] = IGROV1 cell killing – plate reader, dry powder samples, PAX8 inhibitor project, dose response (AID 743043); type: functional, cell-based; settings: IGROV-1
[2] = OVCAR8 cell viability loss – plate reader, dry powder samples, PAX8 project, dose response (AID 743197); type: functional, cell-based; settings: OVCAR-8
[3] = biological target: T1, Replicative DNA helicase DnaB (Mycobacterium tuberculosis, UniProt P9WMR3); assay: DnaB intein splicing inhibitors, dose response, biochemical, cell-free fluorescence (AID 449749); type: functional
T1 sequence (P9WMR3 whole entry): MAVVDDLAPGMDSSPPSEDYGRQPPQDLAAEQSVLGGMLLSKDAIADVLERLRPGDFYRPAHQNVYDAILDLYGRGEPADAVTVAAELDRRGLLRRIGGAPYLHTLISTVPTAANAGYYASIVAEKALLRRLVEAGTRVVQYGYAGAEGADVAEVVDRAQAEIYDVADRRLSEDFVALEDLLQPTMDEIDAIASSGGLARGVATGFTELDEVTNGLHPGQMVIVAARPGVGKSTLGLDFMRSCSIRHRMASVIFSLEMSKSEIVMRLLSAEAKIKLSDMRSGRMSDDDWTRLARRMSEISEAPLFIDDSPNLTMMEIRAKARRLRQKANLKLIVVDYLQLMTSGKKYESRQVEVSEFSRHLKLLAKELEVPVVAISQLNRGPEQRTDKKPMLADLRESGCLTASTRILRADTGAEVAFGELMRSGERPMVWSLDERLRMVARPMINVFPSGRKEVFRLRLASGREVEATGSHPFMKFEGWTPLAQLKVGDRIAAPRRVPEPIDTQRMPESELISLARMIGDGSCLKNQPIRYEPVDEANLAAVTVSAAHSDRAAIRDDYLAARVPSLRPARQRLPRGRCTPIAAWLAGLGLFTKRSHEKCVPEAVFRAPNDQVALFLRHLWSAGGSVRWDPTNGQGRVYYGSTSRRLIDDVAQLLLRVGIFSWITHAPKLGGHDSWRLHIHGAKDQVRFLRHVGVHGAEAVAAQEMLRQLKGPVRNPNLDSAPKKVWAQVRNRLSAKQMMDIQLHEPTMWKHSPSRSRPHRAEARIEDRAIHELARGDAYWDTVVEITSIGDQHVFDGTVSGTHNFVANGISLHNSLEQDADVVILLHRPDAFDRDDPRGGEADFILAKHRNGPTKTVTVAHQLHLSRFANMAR

Protein RecA = biological target: T2, Protein RecA (Mycobacterium tuberculosis, UniProt P9WHJ3); assay: Fluorescence Cell-Free Homogeneous Dose Retest to Identify Inhibitors of RecA-Intein Splicing Activity. [Related pubchem assays (depositor defined):AID2097, AID2223, AID489010, AID492950]; type: functional
T2 sequence (P9WHJ3 whole entry): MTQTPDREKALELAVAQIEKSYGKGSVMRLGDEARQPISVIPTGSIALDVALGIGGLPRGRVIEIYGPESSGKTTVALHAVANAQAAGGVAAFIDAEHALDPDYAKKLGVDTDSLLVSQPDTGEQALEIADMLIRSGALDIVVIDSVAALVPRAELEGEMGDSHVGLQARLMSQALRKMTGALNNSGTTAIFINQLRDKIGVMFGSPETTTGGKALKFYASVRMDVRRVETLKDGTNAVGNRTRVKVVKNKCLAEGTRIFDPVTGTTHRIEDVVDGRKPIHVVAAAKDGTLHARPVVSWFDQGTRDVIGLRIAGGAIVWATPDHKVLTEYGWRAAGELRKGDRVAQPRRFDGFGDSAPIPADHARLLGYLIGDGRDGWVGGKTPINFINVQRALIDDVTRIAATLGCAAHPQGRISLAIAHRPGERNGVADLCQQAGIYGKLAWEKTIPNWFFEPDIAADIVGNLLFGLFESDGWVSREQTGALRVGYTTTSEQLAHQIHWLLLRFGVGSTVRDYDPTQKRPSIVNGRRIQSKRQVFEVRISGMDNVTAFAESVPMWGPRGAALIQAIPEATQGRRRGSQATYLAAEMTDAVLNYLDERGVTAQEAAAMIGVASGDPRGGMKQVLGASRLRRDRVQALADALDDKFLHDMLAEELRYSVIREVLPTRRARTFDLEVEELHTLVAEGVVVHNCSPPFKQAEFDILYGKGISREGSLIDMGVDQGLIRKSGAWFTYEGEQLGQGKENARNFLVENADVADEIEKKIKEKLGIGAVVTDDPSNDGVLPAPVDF

[4] = biological target: T3, Histone-lysine N-methyltransferase NSD2 (Homo sapiens, UniProt O96028); type: biochemical
T3 sequence (O96028 whole entry): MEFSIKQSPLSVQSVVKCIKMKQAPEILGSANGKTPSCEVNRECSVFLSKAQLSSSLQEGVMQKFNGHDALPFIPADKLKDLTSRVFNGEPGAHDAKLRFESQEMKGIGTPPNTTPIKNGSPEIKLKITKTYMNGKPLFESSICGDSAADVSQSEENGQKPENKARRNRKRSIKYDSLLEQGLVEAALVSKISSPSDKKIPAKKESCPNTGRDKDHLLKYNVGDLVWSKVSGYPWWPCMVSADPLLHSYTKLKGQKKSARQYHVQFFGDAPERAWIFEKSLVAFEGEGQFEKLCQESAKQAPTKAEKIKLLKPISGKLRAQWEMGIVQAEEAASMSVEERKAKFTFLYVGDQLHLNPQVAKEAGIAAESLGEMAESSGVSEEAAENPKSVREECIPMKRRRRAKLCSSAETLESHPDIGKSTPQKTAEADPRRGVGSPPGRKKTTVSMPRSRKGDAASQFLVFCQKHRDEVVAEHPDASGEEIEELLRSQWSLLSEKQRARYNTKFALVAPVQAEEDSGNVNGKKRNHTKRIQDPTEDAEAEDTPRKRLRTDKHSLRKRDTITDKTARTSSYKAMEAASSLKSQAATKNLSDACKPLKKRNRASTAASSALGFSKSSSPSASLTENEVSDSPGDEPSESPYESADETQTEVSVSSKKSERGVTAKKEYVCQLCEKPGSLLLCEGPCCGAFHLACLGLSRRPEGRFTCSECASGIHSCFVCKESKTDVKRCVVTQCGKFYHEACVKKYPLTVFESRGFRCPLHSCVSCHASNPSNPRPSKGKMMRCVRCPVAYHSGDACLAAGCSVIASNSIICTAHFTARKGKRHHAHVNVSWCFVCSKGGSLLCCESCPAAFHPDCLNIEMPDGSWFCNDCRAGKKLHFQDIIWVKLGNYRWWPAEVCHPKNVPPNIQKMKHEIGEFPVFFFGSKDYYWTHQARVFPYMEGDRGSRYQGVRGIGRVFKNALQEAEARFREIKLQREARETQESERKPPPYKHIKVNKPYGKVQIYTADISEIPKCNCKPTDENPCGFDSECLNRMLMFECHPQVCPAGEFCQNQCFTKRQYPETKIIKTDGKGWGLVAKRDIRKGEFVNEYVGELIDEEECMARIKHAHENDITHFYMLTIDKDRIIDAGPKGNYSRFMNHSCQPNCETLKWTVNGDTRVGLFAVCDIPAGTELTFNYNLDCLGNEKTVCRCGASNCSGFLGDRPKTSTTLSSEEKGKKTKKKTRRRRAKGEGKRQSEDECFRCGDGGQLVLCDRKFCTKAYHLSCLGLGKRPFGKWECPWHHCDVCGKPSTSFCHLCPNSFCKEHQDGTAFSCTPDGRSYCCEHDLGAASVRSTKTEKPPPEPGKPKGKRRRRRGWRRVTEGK

Nonstructural protein 1 = Nonstructural protein 1 (Influenza A virus, UniProt Q194T2); type: functional, Influenza A virus (A/California/07/2009(H1N1))
Nonstructural protein 1, sequence (Q194T2 whole entry): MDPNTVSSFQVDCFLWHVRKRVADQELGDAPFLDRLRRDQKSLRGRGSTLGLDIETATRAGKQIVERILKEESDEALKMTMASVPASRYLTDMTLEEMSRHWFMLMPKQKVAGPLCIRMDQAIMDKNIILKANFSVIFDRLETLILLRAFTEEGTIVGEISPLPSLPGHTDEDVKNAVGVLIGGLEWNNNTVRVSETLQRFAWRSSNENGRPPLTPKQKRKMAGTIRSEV

[5] = OVCAR-3 cell viability loss – plate reader, dry powder samples, PAX8 inhibitor project, dose response (AID 743044); type: functional, cell-based
[6] = Vero E6 cell cytotoxicity, dose response, cytotoxicity control for non-replicating M. tuberculosis project, secondary assay (AID 492998); type: functional, VeroE6; settings: Vero C1008
cells = type: functional
[7] = biological target: T4, Short transient receptor potential channel 4 (Mus musculus, UniProt Q9QUQ5); assay: block of DAMGO-driven TRPC4 calcium entry – cell-based, HEK293 TRPC4/mu-opioid, Fluo-4 calcium, dose response (AID 434942); type: functional;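 note: potency of inhibitors blocking the TRPC4 calcium response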
T4 sequence (Q9QUQ5 whole entry): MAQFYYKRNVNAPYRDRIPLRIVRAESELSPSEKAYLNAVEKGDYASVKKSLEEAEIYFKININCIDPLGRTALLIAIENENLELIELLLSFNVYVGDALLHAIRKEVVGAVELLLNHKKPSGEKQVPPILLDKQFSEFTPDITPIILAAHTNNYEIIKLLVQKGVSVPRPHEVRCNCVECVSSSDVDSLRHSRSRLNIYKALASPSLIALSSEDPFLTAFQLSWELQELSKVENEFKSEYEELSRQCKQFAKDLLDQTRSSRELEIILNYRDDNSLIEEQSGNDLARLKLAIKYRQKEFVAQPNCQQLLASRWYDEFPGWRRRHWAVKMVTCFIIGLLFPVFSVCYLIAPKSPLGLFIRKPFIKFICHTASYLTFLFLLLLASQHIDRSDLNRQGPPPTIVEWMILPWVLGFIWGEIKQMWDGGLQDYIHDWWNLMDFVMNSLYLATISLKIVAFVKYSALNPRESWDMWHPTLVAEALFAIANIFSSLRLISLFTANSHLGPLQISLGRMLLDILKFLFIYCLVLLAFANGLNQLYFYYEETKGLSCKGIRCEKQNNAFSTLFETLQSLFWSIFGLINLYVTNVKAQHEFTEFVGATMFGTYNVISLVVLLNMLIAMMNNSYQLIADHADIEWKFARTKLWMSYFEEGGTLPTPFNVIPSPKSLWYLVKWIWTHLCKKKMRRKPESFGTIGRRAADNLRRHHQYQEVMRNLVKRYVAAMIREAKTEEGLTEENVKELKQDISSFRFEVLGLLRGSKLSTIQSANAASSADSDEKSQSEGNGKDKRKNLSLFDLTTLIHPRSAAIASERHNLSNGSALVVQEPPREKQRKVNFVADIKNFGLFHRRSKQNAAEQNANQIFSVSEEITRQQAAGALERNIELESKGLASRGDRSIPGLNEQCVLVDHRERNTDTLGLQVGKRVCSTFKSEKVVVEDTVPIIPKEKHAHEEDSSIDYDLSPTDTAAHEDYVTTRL

[8] = THP-1 cell cytotoxicity, dose response, cytotoxicity control for non-replicating M. tuberculosis project (AID 489025); type: functional
[9] = system: Streptococcus sp. 'group A'; assay: Streptococcus pyogenes SK(-)GAS viability under kanamycin – luminescence, BacTiterGlo, confirmation, counter-screen for streptokinase expression inhibitor project, dose response (AID 1900); type: functional, organism-based
Streptokinase A = biological target: T5, Streptokinase A (Streptococcus pyogenes serotype M1, UniProt P10520); assay: viability-normalized secreted streptokinase activity reduction – plasminogen activation absorbance, OD405, dose response (AID 1914); type: functional, Streptococcus pyogenes M1 GAS;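 note: secreted streptokinase activity via plasminogen activation per viability signal from cell pellet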
T5 sequence (P10520 whole entry): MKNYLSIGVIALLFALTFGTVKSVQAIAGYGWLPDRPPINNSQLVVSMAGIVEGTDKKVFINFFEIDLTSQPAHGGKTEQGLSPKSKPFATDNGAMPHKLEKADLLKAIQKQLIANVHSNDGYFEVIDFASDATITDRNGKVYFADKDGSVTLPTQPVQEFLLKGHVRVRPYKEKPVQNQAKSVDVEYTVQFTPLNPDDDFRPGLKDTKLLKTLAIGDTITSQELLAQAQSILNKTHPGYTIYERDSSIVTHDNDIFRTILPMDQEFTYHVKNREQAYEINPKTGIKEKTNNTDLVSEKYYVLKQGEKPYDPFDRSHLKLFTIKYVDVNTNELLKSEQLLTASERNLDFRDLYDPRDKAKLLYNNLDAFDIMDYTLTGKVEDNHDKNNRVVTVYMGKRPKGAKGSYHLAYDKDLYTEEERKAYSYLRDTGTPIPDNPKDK

Streptococcus = assay: GAS UMAA2166 growth inhibition – luminescence, BacTiterGlo, counter-screen for streptokinase expression inhibitor project, dose response (AID 1915); type: functional, organism-based;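 note: potency for reduction of bacterial viability or growth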

Paired box protein Pax-8, sequence (Q06710 whole entry): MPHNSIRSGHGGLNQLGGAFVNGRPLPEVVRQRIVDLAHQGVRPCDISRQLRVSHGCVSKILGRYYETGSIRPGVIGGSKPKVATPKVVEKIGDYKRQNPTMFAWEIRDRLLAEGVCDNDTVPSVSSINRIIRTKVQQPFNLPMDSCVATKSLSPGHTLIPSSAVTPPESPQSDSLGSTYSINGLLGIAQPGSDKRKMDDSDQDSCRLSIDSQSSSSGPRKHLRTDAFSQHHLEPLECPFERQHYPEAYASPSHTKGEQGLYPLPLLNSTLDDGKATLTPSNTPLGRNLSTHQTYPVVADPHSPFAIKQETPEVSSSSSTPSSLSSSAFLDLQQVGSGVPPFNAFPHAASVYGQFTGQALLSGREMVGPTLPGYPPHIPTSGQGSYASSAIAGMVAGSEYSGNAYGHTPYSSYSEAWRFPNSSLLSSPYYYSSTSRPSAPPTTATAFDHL

SMILES: C[C@H](CO)N1C[C@H](C)[C@H](CN(C)Cc2ccc(Cl)c(Cl)c2)OCCCC[C@H](C)Oc2ccc(NC(=O)Nc3ccc(C(F)(F)F)cc3)cc2C1=O
- AC50 (Paired box protein Pax-8): 5.3 µM (active)
- AC50 [1]: 43.1 µM (active)
- AC50 [2]: 63 µM (active)

SMILES: Cc1[nH]n(-c2ccccc2)c(=O)c1C(C[N+](=O)[O-])c1ccc(Cl)cc1 (stereo not given)
- AC50 [3]: 5.32 µM (active)
- EC50 (Protein RecA): 3.22 µM (active)
- AC50 [4]: 9.52 µM (active)

SMILES: O=C(N/N=C/c1ccccc1O)c1cc[n+]([O-])cc1
- IC50 (Nonstructural protein 1): 4.49 µM (active)

SMILES: Cc1cccc(S(=O)(=O)N2CC[C@@H]3[C@H](CO)N(C)c4ccc(C#Cc5ccc(F)cc5)cc4[C@@H]32)c1
- AC50 (Paired box protein Pax-8): 8.27 µM (active)
- AC50 [1]: 41.8 µM (active)
- AC50 [2]: > 60 µM (inactive)

SMILES: C[C@@H]1CCCCO[C@@H](CN(C)C(=O)Nc2cccc3ccccc23)[C@H](C)CN([C@H](C)CO)C(=O)c2cc(NS(=O)(=O)c3ccc(F)cc3)ccc2O1
- AC50 (Paired box protein Pax-8): 5.4 µM (active)
- AC50 [1]: 45.5 µM (active)
- AC50 [2]: > 70 µM (inactive)

SMILES: C[C@@H]1CN([C@@H](C)CO)C(=O)c2cc(NC(=O)c3ccccc3)ccc2O[C@@H](C)CCCCO[C@@H]1CN(C)Cc1ccc(C(F)(F)F)cc1
- AC50 (Paired box protein Pax-8): 9.74 µM (active)
- AC50 [5]: 30.4 µM (active)
- AC50 [2]: > 70 µM (inactive)

SMILES: O=C(c1ccccc1)c1nc[nH]c1C(=O)Nc1ccccc1
- CC50 [6]: > 20 µM (active)
- IC50 (cells): 12.5 µM (active)

SMILES: COc1cc2c(cc1OC)C(C)N(CCc1ccc(Cl)cc1)CC2 (stereo not given)
- EC50 [7]: 0.105 µM (active)

SMILES: CC(=O)Oc1ccc(/C=C(\NC(=O)c2ccco2)C(=O)NCc2ccccc2)cc1
- EC50 [7]: 1.68 µM (active)

SMILES: Cc1nn(C)cc1/C=N/NC(=O)c1sc2ccccc2c1Cl
- CC50 [8]: > 40 µM (active)

SMILES: Cc1ccc(Cn2c(Cc3ccccc3)nc3ccccc32)cc1
- EC50 [9]: 12.5 µM (active)
- EC50 (Streptokinase A): > 150 µM (not active)
- EC50 (Streptococcus): 61.3 µM (active)
- EC50 [7]: 0.668 µM (active)

From ChEMBL document CHEMBL1201862, “PubChem BioAssay data set” (2004)
